Laboratory results from patent US20020111274A1, “1-alkyl-3-[1-(substituted phenyl) benzotriazol-6-yl] uracils” (BASF Aktiengesellschaft, priority 2000, published 2002).

How the values were obtained:
Parameters in all cases: scale not given here
Conditions in all cases: postemergence spray, rated about two-three weeks after treatment
ABUTH Velvetleaf = assay: Postemergence herbicidal evaluation, ABUTH; format: in vivo, Abutilon theophrasti, Medic.
Summary of the method: (§1)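 For this test, compound in an 80/20 acetone/water vehicle with 1.0% seed oil was sprayed over two-week-old seedlings at about 0.006 to 0.400 kg per hectare. Injury was assessed visually two to three weeks on.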

AMBEL Ragweed, Common = assay: Postemergence herbicidal evaluation, AMBEL; format: in vivo, Ambrosia artemisifolia, L.
Summary of the method: as §1

CASOB Sicklepod = assay: Postemergence herbicidal evaluation, CASOB; format: in vivo, Cassia obtusifolia, L.
Summary of the method: as §1

[1] = tested on: CHEAL Lambsquarters, Common; assay: Postemergence herbicidal evaluation, CHEAL; format: in vivo, Chenopodium album, L.
Summary of the method: as §1

ECHOG Barnyardgrass = assay: Postemergence herbicidal evaluation, ECHOG; format: in vivo, Echinochloa crus-galli, (L.) Beau
Summary of the method: as §1

GALAP Galium = assay: Postemergence herbicidal evaluation, GALAP; format: in vivo, Galium aparine
Summary of the method: as §1

[2] = tested on: IPOHE Morningglory, Ivyleaf; assay: Postemergence herbicidal evaluation, IPOHE; format: in vivo, Ipomoea hederacea, (L.) Jacq.
Summary of the method: as §1

SETVI Foxtail, Green = assay: Postemergence herbicidal evaluation, SETVI; format: in vivo, Setaria viridis, (L.) Beau
Summary of the method: as §1

GLXMAW Soybean, Williams = assay: Postemergence herbicidal evaluation, GLXMAW; format: in vivo, Glycine max, (L.) Merr. cv Williams
Summary of the method: as §1

[3] = tested on: TRZAWR Wheat, Winter, cv Riband; assay: Postemergence herbicidal evaluation, TRZAWR; format: in vivo, Triticum aestivum
Summary of the method: as §1

ORYSAT Rice, Tebonnet = assay: Postemergence herbicidal evaluation, ORYSAT; format: in vivo, Oryza sativa, (L.)
Summary of the method: as §1

ZEAMX Corn, Field = assay: Postemergence herbicidal evaluation, ZEAMX; format: in vivo, Zea mays, L. (Sammel-Bezeichnung)
Summary of the method: as §1

**Q.** Which “Postemergence herbicidal rating ABUTH” value (ABUTH Velvetleaf; 0.008 kg/ha) does the source give for COc1ccc(C)cc1-n1nnc2cc(F)c(-n3c(=O)cc(C(F)(F)F)n(C)c3=O)cc21 [Example 18, 3-[5-fluoro-1-(2-methoxy-5-methylphenyl)-1H-1,2,3-benzotriazol-6-yl]-1-methyl-6-(trifluoromethyl)-2,4(1H,3H)-pyrimidinedione] here?
**A.** The value was 9.0.

**Q.** And the “Postemergence herbicidal rating ABUTH” value (ABUTH Velvetleaf; 0.016 kg/ha)?
**A.** The value was 9.0.

**Q.** What about the “Postemergence herbicidal rating ABUTH” value (ABUTH Velvetleaf; 0.032 kg/ha) of the same molecule?
**A.** The value was 9.0.

**Q.** And the “Postemergence herbicidal rating ABUTH” value (ABUTH Velvetleaf; 0.062 kg/ha)?
**A.** The value was 9.0.

**Q.** What about the “Postemergence herbicidal rating AMBEL” value (AMBEL Ragweed, Common; 0.008 kg/ha) of the same molecule?
**A.** The value was 1.0.

**Q.** What about the “Postemergence herbicidal rating AMBEL” value (AMBEL Ragweed, Common; 0.016 kg/ha) of the same molecule?
**A.** The value was 6.0.

**Q.** And the “Postemergence herbicidal rating AMBEL” value (AMBEL Ragweed, Common; 0.032 kg/ha)?
**A.** The value was 6.0.

**Q.** And the “Postemergence herbicidal rating AMBEL” value (AMBEL Ragweed, Common; 0.062 kg/ha)?
**A.** The value was 9.0.

**Q.** What about the “Postemergence herbicidal rating CASOB” value (CASOB Sicklepod; 0.008 kg/ha) of the same molecule?
**A.** The value was 0.0.

**Q.** And the “Postemergence herbicidal rating CASOB” value (CASOB Sicklepod; 0.016 kg/ha)?
**A.** Its value is 7.0.

**Q.** And the “Postemergence herbicidal rating CASOB” value (CASOB Sicklepod; 0.032 kg/ha)?
**A.** The value was 6.0.

**Q.** And the “Postemergence herbicidal rating CASOB” value (CASOB Sicklepod; 0.062 kg/ha)?
**A.** The value was 7.0.

**Q.** What about the “Postemergence herbicidal rating CHEAL” value ([1]; 0.008 kg/ha) of the same molecule?
**A.** Its value is 1.0.

**Q.** And the “Postemergence herbicidal rating CHEAL” value ([1]; 0.016 kg/ha)?
**A.** Its value is 7.0.

**Q.** What about the “Postemergence herbicidal rating CHEAL” value ([1]; 0.032 kg/ha) of the same molecule?
**A.** Its value is 9.0.

**Q.** What about the “Postemergence herbicidal rating CHEAL” value ([1]; 0.062 kg/ha) of the same molecule?
**A.** Its value is 9.0.

**Q.** What about the “Postemergence herbicidal rating ECHCG” value (ECHOG Barnyardgrass; 0.008 kg/ha) of the same molecule?
**A.** Its value is 0.0.

**Q.** And the “Postemergence herbicidal rating ECHCG” value (ECHOG Barnyardgrass; 0.016 kg/ha)?
**A.** Its value is 2.0.

**Q.** What about the “Postemergence herbicidal rating ECHCG” value (ECHOG Barnyardgrass; 0.032 kg/ha) of the same molecule?
**A.** The value was 2.0.

**Q.** What about the “Postemergence herbicidal rating ECHCG” value (ECHOG Barnyardgrass; 0.062 kg/ha) of the same molecule?
**A.** The value was 4.0.

**Q.** What about the “Postemergence herbicidal rating GALAP” value (GALAP Galium; 0.008 kg/ha) of the same molecule?
**A.** The value was 1.0.

**Q.** What about the “Postemergence herbicidal rating GALAP” value (GALAP Galium; 0.016 kg/ha) of the same molecule?
**A.** The value was 3.0.

**Q.** What about the “Postemergence herbicidal rating GALAP” value (GALAP Galium; 0.032 kg/ha) of the same molecule?
**A.** Its value is 5.0.

**Q.** And the “Postemergence herbicidal rating GALAP” value (GALAP Galium; 0.062 kg/ha)?
**A.** Its value is 5.0.

**Q.** What about the “Postemergence herbicidal rating IPOHE” value ([2]; 0.008 kg/ha) of the same molecule?
**A.** Its value is 9.0.

**Q.** What about the “Postemergence herbicidal rating IPOHE” value ([2]; 0.016 kg/ha) of the same molecule?
**A.** Its value is 9.0.

**Q.** And the “Postemergence herbicidal rating IPOHE” value ([2]; 0.032 kg/ha)?
**A.** Its value is 9.0.

**Q.** What about the “Postemergence herbicidal rating IPOHE” value ([2]; 0.062 kg/ha) of the same molecule?
**A.** The value was 9.0.

**Q.** What about the “Postemergence herbicidal rating SETVI” value (SETVI Foxtail, Green; 0.008 kg/ha) of the same molecule?
**A.** Its value is 0.0.

**Q.** And the “Postemergence herbicidal rating SETVI” value (SETVI Foxtail, Green; 0.016 kg/ha)?
**A.** Its value is 5.0.

**Q.** What about the “Postemergence herbicidal rating SETVI” value (SETVI Foxtail, Green; 0.032 kg/ha) of the same molecule?
**A.** The value was 9.0.

**Q.** And the “Postemergence herbicidal rating SETVI” value (SETVI Foxtail, Green; 0.062 kg/ha)?
**A.** The value was 9.0.

**Q.** And the “Postemergence herbicidal rating GLXMAW” value (GLXMAW Soybean, Williams; 0.008 kg/ha)?
**A.** The value was 4.5.

**Q.** What about the “Postemergence herbicidal rating GLXMAW” value (GLXMAW Soybean, Williams; 0.016 kg/ha) of the same molecule?
**A.** Its value is 4.5.

**Q.** What about the “Postemergence herbicidal rating GLXMAW” value (GLXMAW Soybean, Williams; 0.032 kg/ha) of the same molecule?
**A.** The value was 6.5.

**Q.** What about the “Postemergence herbicidal rating GLXMAW” value (GLXMAW Soybean, Williams; 0.062 kg/ha) of the same molecule?
**A.** The value was 6.0.

**Q.** What about the “Postemergence herbicidal rating TRZAWR” value ([3]; 0.008 kg/ha) of the same molecule?
**A.** The value was 3.5.

**Q.** And the “Postemergence herbicidal rating TRZAWR” value ([3]; 0.016 kg/ha)?
**A.** The value was 4.5.

**Q.** And the “Postemergence herbicidal rating TRZAWR” value ([3]; 0.032 kg/ha)?
**A.** The value was 5.5.

**Q.** And the “Postemergence herbicidal rating TRZAWR” value ([3]; 0.062 kg/ha)?
**A.** Its value is 4.5.

**Q.** And the “Postemergence herbicidal rating ORYSAT” value (ORYSAT Rice, Tebonnet; 0.008 kg/ha)?
**A.** Its value is 3.5.

**Q.** And the “Postemergence herbicidal rating ORYSAT” value (ORYSAT Rice, Tebonnet; 0.016 kg/ha)?
**A.** The value was 4.0.

**Q.** And the “Postemergence herbicidal rating ORYSAT” value (ORYSAT Rice, Tebonnet; 0.032 kg/ha)?
**A.** The value was 5.5.

**Q.** And the “Postemergence herbicidal rating ORYSAT” value (ORYSAT Rice, Tebonnet; 0.062 kg/ha)?
**A.** The value was 5.5.

**Q.** What about the “Postemergence herbicidal rating ZEAMX” value (ZEAMX Corn, Field; 0.008 kg/ha) of the same molecule?
**A.** The value was 4.5.

**Q.** What about the “Postemergence herbicidal rating ZEAMX” value (ZEAMX Corn, Field; 0.016 kg/ha) of the same molecule?
**A.** Its value is 5.5.

**Q.** And the “Postemergence herbicidal rating ZEAMX” value (ZEAMX Corn, Field; 0.032 kg/ha)?
**A.** The value was 6.0.

**Q.** And the “Postemergence herbicidal rating ZEAMX” value (ZEAMX Corn, Field; 0.062 kg/ha)?
**A.** The value was 6.0.
